# Results reported in patent US8580918B2, “Peptidic GLP-2 agonists” (Ferring B.V., priority 2009, dated 2013).
# Where a SMILES comes first, the peptide text is derived from it. [ ]: non-standard residue; d: D form. The star is where a group is joined. X2 = NC(=O)COCC(=O)NCCCOCCOCCOCCCN*; d2Thi = N[C@H](Cc1cccs1)C(=O)O; NH(4-picolyl) = c1cc(CN*)ccn1; PEG4 = NCCOCCOCCOCCOCCC(=O)O; Nle = CCCC[C@H](N)C(=O)O
# Test: Pharmacokinetics in rats after intravenous bolus injection (systemic clearance)
# Format: in vivo
# Settings: rat, plasma, 0.1 mg FB/kg, adult male Sprague-Dawley rats, i.v. bolus, dose 0.10 mg FB/kg, read-out: CL (ml/kg/min) Average
# Procedure, shortened: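 Systemic clearance from noncompartmental analysis as dose per kg over trapezoidal AUC extrapolated to infinity, mean and SD across animals. Plasma (K2EDTA) levels by LC/MS/MS after single IV jugular-vein bolus, 0.1-1.0 mg/kg, in 3-4 cannulated male Sprague-Dawley rats.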
row,clearance,Compound
1,0.2 mL/kg/min,"CCCC[C@H](NC(=O)[C@H](CCC(=O)O)NC(=O)[C@H](CC(=O)O)NC(=O)[C@H](CO)NC(=O)[C@H](Cc1ccccc1)NC(=O)[C@H](CO)NC(=O)CNC(=O)[C@H](CC(=O)O)NC(=O)CNC(=O)[C@@H](N)Cc1cnc[nH]1)C(=O)N[C@H](Cc1ccccc1)C(=O)N[C@H](C(=O)N[C@H](C(=O)N[C@@H](CC(C)C)C(=O)N[C@@H](CC(=O)O)C(=O)N[C@@H](CC(C)C)C(=O)N[C@@H](CC(C)C)C(=O)N[C@@H](C)C(=O)N[C@@H](C)C(=O)N[C@@H](CCCNC(=N)N)C(=O)N[C@@H](CC(=O)O)C(=O)N[C@@H](Cc1ccccc1)C(=O)N[C@H](C(=O)N[C@@H](CC(N)=O)C(=O)N[C@@H](Cc1c[nH]c2ccccc12)C(=O)N[C@@H](CC(C)C)C(=O)N[C@H](C(=O)N[C@@H](CCC(N)=O)C(=O)N[C@H](C(=O)N[C@@H](CCCCN)C(=O)N[C@H](C(=O)N[C@H](C(=O)N[C@@H](CC(=O)O)C(N)=O)[C@@H](C)O)[C@@H](C)CC)[C@@H](C)O)[C@@H](C)CC)[C@@H](C)CC)[C@@H](C)CC)[C@@H](C)O [Compound 51, [Gly2,Nle10,D-Phe11,Leu16] hGLP-2(1-33)-NH2] (H-HGDGSFSDE[Nle][dF]TILDLLAARDFINWLIQTKITD-NH2)"

# Same assay, conditions: rat, plasma, 0.2 mg FB/kg, adult male Sprague-Dawley rats, i.v. bolus, dose 0.20 mg FB/kg, read-out: CL (ml/kg/min) Average
row,Compound,clearance
1,"CCCC[C@H](NC(=O)[C@H](CCC(=O)O)NC(=O)[C@H](CC(=O)O)NC(=O)[C@H](CO)NC(=O)[C@H](Cc1ccccc1)NC(=O)[C@H](CO)NC(=O)CNC(=O)[C@H](CC(=O)O)NC(=O)CNC(=O)[C@@H](N)Cc1cnc[nH]1)C(=O)N[C@H](Cc1ccccc1)C(=O)N[C@H](C(=O)N[C@H](C(=O)N[C@@H](CC(C)C)C(=O)N[C@@H](CC(=O)O)C(=O)N[C@@H](CC(C)C)C(=O)N[C@@H](CC(C)C)C(=O)N[C@@H](C)C(=O)N[C@@H](C)C(=O)N[C@@H](CCCNC(=N)N)C(=O)N[C@@H](CC(=O)O)C(=O)N[C@@H](Cc1ccccc1)C(=O)N[C@H](C(=O)N[C@@H](CC(N)=O)C(=O)N[C@@H](Cc1c[nH]c2ccccc12)C(=O)N[C@@H](CC(C)C)C(=O)N[C@H](C(=O)N[C@@H](CCC(N)=O)C(=O)N[C@H](C(=O)N[C@@H](CCCCN)C(=O)N[C@H](C(=O)N[C@H](C(=O)N[C@@H](CC(=O)O)C(=O)NCC)[C@@H](C)O)[C@@H](C)CC)[C@@H](C)O)[C@@H](C)CC)[C@@H](C)CC)[C@@H](C)CC)[C@@H](C)O [Compound 53, [Gly2,Nle10,D-Phe11,Leu16] hGLP-2(1-33)-NHEt] (H-HGDGSFSDE[Nle][dF]TILDLLAARDFINWLIQTKITD-NHEt)",0.19 mL/kg/min
2,"CCCC[C@H](NC(=O)[C@H](CCC(=O)O)NC(=O)[C@H](CC(=O)O)NC(=O)[C@H](CO)NC(=O)[C@H](Cc1ccccc1)NC(=O)[C@H](CO)NC(=O)CNC(=O)[C@H](CC(=O)O)NC(=O)CNC(=O)[C@@H](N)Cc1cnc[nH]1)C(=O)N[C@H](Cc1ccccc1)C(=O)N[C@H](C(=O)N[C@H](C(=O)N[C@@H](CC(C)C)C(=O)N[C@@H](CC(=O)O)C(=O)N[C@@H](CC(C)C)C(=O)N[C@@H](CC(C)C)C(=O)N[C@@H](C)C(=O)N[C@@H](C)C(=O)N[C@@H](CCCNC(=N)N)C(=O)N[C@@H](CC(=O)O)C(=O)N[C@@H](Cc1ccccc1)C(=O)N[C@H](C(=O)N[C@@H](CC(N)=O)C(=O)N[C@@H](Cc1c[nH]c2ccccc12)C(=O)N[C@@H](CC(C)C)C(=O)N[C@H](C(=O)N[C@@H](CCC(N)=O)C(=O)N[C@H](C(=O)N[C@@H](CCCCN)C(=O)N[C@H](C(=O)N[C@H](C(=O)N[C@@H](CC(=O)O)C(=O)NCCOCCOCCOCCOCCC(N)=O)[C@@H](C)O)[C@@H](C)CC)[C@@H](C)O)[C@@H](C)CC)[C@@H](C)CC)[C@@H](C)CC)[C@@H](C)O [Compound 55, [Gly2,Nle10,D-Phe11,Leu16] hGLP-2(1-33)-NH—((CH2)2O)4—(CH2)2—C(O)—NH2] (H-HGDGSFSDE[Nle][dF]TILDLLAARDFINWLIQTKITD[PEG4]-NH2)",0.23 mL/kg/min
3,"CCCC[C@H](NC(=O)[C@H](CCC(=O)O)NC(=O)[C@H](CC(=O)O)NC(=O)[C@H](CO)NC(=O)[C@H](Cc1ccccc1)NC(=O)[C@H](CO)NC(=O)CNC(=O)[C@H](CC(=O)O)NC(=O)CNC(=O)[C@@H](N)Cc1c[nH]cn1)C(=O)N[C@H](Cc1ccccc1)C(=O)N[C@H](C(=O)N[C@H](C(=O)N[C@@H](CC(C)C)C(=O)N[C@@H](CC(=O)O)C(=O)N[C@@H](CC(C)C)C(=O)N[C@@H](CC(C)C)C(=O)N[C@@H](C)C(=O)N[C@@H](C)C(=O)N[C@@H](CCCNC(=N)N)C(=O)N[C@@H](CC(=O)O)C(=O)N[C@@H](Cc1ccccc1)C(=O)N[C@H](C(=O)N[C@@H](CC(N)=O)C(=O)N[C@@H](Cc1c[nH]c2ccccc12)C(=O)N[C@@H](CC(C)C)C(=O)N[C@H](C(=O)N[C@@H](CCC(N)=O)C(=O)N[C@H](C(=O)N[C@@H](CCCCN)C(=O)N[C@H](C(=O)N[C@H](C(=O)N[C@@H](CC(=O)O)C(=O)NCCCOCCOCCOCCCNC(=O)COCC(N)=O)[C@@H](C)O)[C@@H](C)CC)[C@@H](C)O)[C@@H](C)CC)[C@@H](C)CC)[C@@H](C)CC)[C@@H](C)O [Compound 56, [Gly2,Nle10,D-Phe11,Leu16] hGLP-2(1-33)-NH—CH2—((CH2)2O)3—(CH2)3—NHC(O)—CH2—O—CH2—C(O)—NH2] (H-HGDGSFSDE[Nle][dF]TILDLLAARDFINWLIQTKITD-X2)",0.28 mL/kg/min

# Continued, values first:
row,clearance,Compound
1,0.48 mL/kg/min,"CCCC[C@H](NC(=O)[C@H](CCC(=O)O)NC(=O)[C@H](CC(=O)O)NC(=O)[C@H](CO)NC(=O)[C@H](Cc1ccccc1)NC(=O)[C@H](CO)NC(=O)CNC(=O)[C@H](CC(=O)O)NC(=O)CNC(=O)[C@@H](N)Cc1c[nH]cn1)C(=O)N[C@H](Cc1ccccc1)C(=O)N[C@H](C(=O)N[C@H](C(=O)N[C@@H](CC(C)C)C(=O)N[C@@H](CC(=O)O)C(=O)N[C@@H](Cc1ccc(O)cc1)C(=O)N[C@@H](CC(C)C)C(=O)N[C@@H](C)C(=O)N[C@@H](C)C(=O)N[C@@H](CCCNC(=N)N)C(=O)N[C@@H](CC(=O)O)C(=O)N[C@@H](Cc1ccccc1)C(=O)N[C@H](C(=O)N[C@@H](CC(N)=O)C(=O)N[C@@H](Cc1c[nH]c2ccccc12)C(=O)N[C@@H](CC(C)C)C(=O)N[C@H](C(=O)N[C@@H](CCC(N)=O)C(=O)N[C@H](C(=O)N[C@@H](CCCCN)C(N)=O)[C@@H](C)O)[C@@H](C)CC)[C@@H](C)CC)[C@@H](C)CC)[C@@H](C)O [Compound 49, [Gly2,Nle10,D-Phe11,Tyr16] hGLP-2 (1-30)-NH2] (H-HGDGSFSDE[Nle][dF]TILDYLAARDFINWLIQTK-NH2)"
2,0.52 mL/kg/min,"CCCC[C@H](NC(=O)[C@H](CCC(=O)O)NC(=O)[C@H](CC(=O)O)NC(=O)[C@H](CO)NC(=O)[C@H](Cc1ccccc1)NC(=O)[C@H](CO)NC(=O)CNC(=O)[C@H](CC(=O)O)NC(=O)CNC(=O)[C@@H](N)Cc1c[nH]cn1)C(=O)N[C@H](Cc1cccs1)C(=O)N[C@H](C(=O)N[C@H](C(=O)N[C@@H](CC(C)C)C(=O)N[C@@H](CC(=O)O)C(=O)N[C@@H](Cc1ccc(O)cc1)C(=O)N[C@@H](CC(C)C)C(=O)N[C@@H](C)C(=O)N[C@@H](C)C(=O)N[C@@H](CCCNC(=N)N)C(=O)N[C@@H](CC(=O)O)C(=O)N[C@@H](Cc1ccccc1)C(=O)N[C@H](C(=O)N[C@@H](CC(N)=O)C(=O)N[C@@H](Cc1c[nH]c2ccccc12)C(=O)N[C@@H](CC(C)C)C(=O)N[C@H](C(=O)N[C@@H](CCC(N)=O)C(=O)N[C@H](C(=O)N[C@@H](CCCCN)C(N)=O)[C@@H](C)O)[C@@H](C)CC)[C@@H](C)CC)[C@@H](C)CC)[C@@H](C)O [Compound 50, [Gly2,Nle10,D-Thi11,Tyr16] hGLP-2 (1-30)-NH2] (H-HGDGSFSDE[Nle][d2Thi]TILDYLAARDFINWLIQTK-NH2)"
3,0.27 mL/kg/min,"CCCC[C@H](NC(=O)[C@H](CCC(=O)O)NC(=O)[C@H](CC(=O)O)NC(=O)[C@H](CO)NC(=O)[C@H](Cc1ccccc1)NC(=O)[C@H](CO)NC(=O)CNC(=O)[C@H](CC(=O)O)NC(=O)CNC(=O)[C@@H](N)Cc1cnc[nH]1)C(=O)N[C@H](Cc1ccccc1)C(=O)N[C@H](C(=O)N[C@H](C(=O)N[C@@H](CC(C)C)C(=O)N[C@@H](CC(=O)O)C(=O)N[C@@H](CC(C)C)C(=O)N[C@@H](CC(C)C)C(=O)N[C@@H](C)C(=O)N[C@@H](C)C(=O)N[C@@H](CCCNC(=N)N)C(=O)N[C@@H](CC(=O)O)C(=O)N[C@@H](Cc1ccccc1)C(=O)N[C@H](C(=O)N[C@@H](CC(N)=O)C(=O)N[C@@H](Cc1c[nH]c2ccccc12)C(=O)N[C@@H](CC(C)C)C(=O)N[C@H](C(=O)N[C@@H](CCC(N)=O)C(=O)N[C@H](C(=O)N[C@@H](CCCCN)C(=O)N[C@H](C(=O)N[C@H](C(=O)N[C@@H](CC(=O)O)C(N)=O)[C@@H](C)O)[C@@H](C)CC)[C@@H](C)O)[C@@H](C)CC)[C@@H](C)CC)[C@@H](C)CC)[C@@H](C)O [Compound 51, [Gly2,Nle10,D-Phe11,Leu16] hGLP-2(1-33)-NH2] (H-HGDGSFSDE[Nle][dF]TILDLLAARDFINWLIQTKITD-NH2)"
4,0.49 mL/kg/min,"CCCC[C@H](NC(=O)[C@H](CCC(=O)O)NC(=O)[C@H](CC(=O)O)NC(=O)[C@H](CO)NC(=O)[C@H](Cc1ccccc1)NC(=O)[C@H](CO)NC(=O)CNC(=O)[C@H](CC(=O)O)NC(=O)CNC(=O)[C@@H](N)Cc1c[nH]cn1)C(=O)N[C@H](Cc1ccccc1)C(=O)N[C@H](C(=O)N[C@H](C(=O)N[C@@H](CC(C)C)C(=O)N[C@@H](CC(=O)O)C(=O)N[C@@H](CC(C)C)C(=O)N[C@@H](CC(C)C)C(=O)N[C@@H](C)C(=O)N[C@H](C(=O)N[C@@H](CCCNC(=N)N)C(=O)N[C@@H](CC(=O)O)C(=O)N[C@@H](Cc1ccccc1)C(=O)N[C@H](C(=O)N[C@@H](CC(N)=O)C(=O)N[C@@H](Cc1c[nH]c2ccccc12)C(=O)N[C@@H](CC(C)C)C(=O)N[C@H](C(=O)N[C@@H](CCC(N)=O)C(=O)N[C@H](C(=O)N[C@@H](CCCCN)C(N)=O)[C@@H](C)O)[C@@H](C)CC)[C@@H](C)CC)[C@@H](C)O)[C@@H](C)CC)[C@@H](C)O [Compound 52, [Gly2,Nle10,D-Phe11,Leu16,Thr19] hGLP-2(1-30)-NH2] (H-HGDGSFSDE[Nle][dF]TILDLLATRDFINWLIQTK-NH2)"
5,0.27 mL/kg/min,"CCCC[C@H](NC(=O)[C@H](CCC(=O)O)NC(=O)[C@H](CC(=O)O)NC(=O)[C@H](CO)NC(=O)[C@H](Cc1ccccc1)NC(=O)[C@H](CO)NC(=O)CNC(=O)[C@H](CC(=O)O)NC(=O)CNC(=O)[C@@H](N)Cc1c[nH]cn1)C(=O)N[C@H](Cc1ccccc1)C(=O)N[C@H](C(=O)N[C@H](C(=O)N[C@@H](CC(C)C)C(=O)N[C@@H](CC(=O)O)C(=O)N[C@@H](CC(C)C)C(=O)N[C@@H](CC(C)C)C(=O)N[C@@H](C)C(=O)N[C@@H](C)C(=O)N[C@@H](CCCNC(=N)N)C(=O)N[C@@H](CC(=O)O)C(=O)N[C@@H](Cc1ccccc1)C(=O)N[C@H](C(=O)N[C@@H](CC(N)=O)C(=O)N[C@@H](Cc1c[nH]c2ccccc12)C(=O)N[C@@H](CC(C)C)C(=O)N[C@H](C(=O)N[C@@H](CCC(N)=O)C(=O)N[C@H](C(=O)N[C@@H](CCCCN)C(=O)N[C@H](C(=O)N[C@H](C(=O)N[C@@H](CC(=O)O)C(=O)NCc1ccncc1)[C@@H](C)O)[C@@H](C)CC)[C@@H](C)O)[C@@H](C)CC)[C@@H](C)CC)[C@@H](C)CC)[C@@H](C)O [Compound 54, [Gly2,Nle10,D-Phe11,Leu16] hGLP-2(1-33)-NH-4-Pic] (H-HGDGSFSDE[Nle][dF]TILDLLAARDFINWLIQTKITD-{NH(4-picolyl)})"
